Reference: patent US20100210518A1, “Peg-lipid conjugates for increasing the solubility of drug compounds” (priority 2009, published 2010)

Details: mouse, in vivo, 25 mg/kg, pH 6
Method: Experiments were performed to determine blood levels of Gefitinib formulations after both intravenous and oral dosing. […] Groups of three male mice (B6D2F1) were used for the studies. HPLC-MS analyses were performed on heparinized mouse plasma samples obtained typically at 0 hr, 0.08 hr, 0.5 hr, 1 hr, 2 hr, 4 hr, 7 hr, 16 hr and 24 hr after bolus IV injection. After oral feeding, the analyses were performed at 0 hr, 0.5 hr, 1 hr, 2 hr, 4 hr, 8 hr, 16 hr and 24 hr. To determine the level of each drug, the drug was first isolated from plasma with a sample pre-treatment. Acetonitrile were used to remove proteins in samples. An isocratic HPLC-MS/MS method was then used to separate the drugs from any potential interference. Drug levels were measured by MS detection with a multiple reaction monitoring (MRM) mode. PK data was analyzed using the WinNonlin program (ver. 5.2, Pharsight) compartmental models of analysis.
The drug was administered orally and the dosing strength was 25 mg/kg. The drug was also administered intravenously and the dosing strength was 25 mg/kg in 15% Cremophor EL® and in 10 mM sodium phosphate buffer (pH 6.0). The AUC (31.3) obtained from the IV administration was used for calculating the relative bioavailability (BA).

- relative bioavailability (BA): 56.0%
Substance: 3,4-Di(oleoyloxy)-decaethylene glycol-benzoate [DDGB]
